Measurements as given in the supplement of paper PMC10307832.

What was measured:
Test in all cases: relative viability (nuclei count vs DMSO), 5 days (fraction); higher = more cells survive
NCI-H727 = system: NCI-H727
Summary of the method: (§1)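 Relative viability was taken as the ratio of nuclei in treated wells to nuclei in vehicle wells. Lung cancer cell lines in 1536-well plates received compounds by pin tool one day after seeding, either one drug alone or a fixed anchor-drug dose plus five library-drug doses (not always all listed) in √10 steps. Nuclei were counted on 4× images after 5 days of treatment, and values are medians of duplicate plates.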

EMC-BAC-2 = system: EMC-BAC-2
Summary of the method: as §1

NCI-H1650 = system: NCI-H1650
Summary of the method: as §1

NCI-H1734 = system: NCI-H1734
Summary of the method: as §1

EKVX = system: EKVX
Summary of the method: as §1

COR-L 105 = system: COR-L 105
Summary of the method: as §1

NCI-H2126 = system: NCI-H2126
Summary of the method: as §1

LK-2 = system: LK-2
Summary of the method: as §1

EPLC-272H = system: EPLC-272H
Summary of the method: as §1

NCI-H1944 = system: NCI-H1944
Summary of the method: as §1

NCI-H1792 = system: NCI-H1792
Summary of the method: as §1

SW 1573 = system: SW 1573
Summary of the method: as §1

BEN = system: BEN
Summary of the method: as §1

HCC-78 = system: HCC-78
Summary of the method: as §1

HCC-827 = system: HCC-827
Summary of the method: as §1

RERF-LC-KJ = system: RERF-LC-KJ
Summary of the method: as §1

NCI-H2087 = system: NCI-H2087
Summary of the method: as §1

LCLC-97TM1 = system: LCLC-97TM1
Summary of the method: as §1

LOU-NH91 = system: LOU-NH91
Summary of the method: as §1

LU99A = system: LU99A
Summary of the method: as §1

SK-MES-1 = system: SK-MES-1
Summary of the method: as §1

NCI-H358 = system: NCI-H358
Summary of the method: as §1

ChaGo-K-1 = system: ChaGo-K-1
Summary of the method: as §1

Compound `Cc1cnc(-c2cnc(NCCNc3ccc(C#N)cn3)nc2-c2ccc(Cl)cc2Cl)[nH]1` + N=C(N)NC(=N)NCCc1ccccc1 [Phenformin] (partner 250 µM) has a relative viability (NCI-H727; first compound 0.08 µM) of 0.488, a relative viability (NCI-H727; first compound 0.253 µM) of 0.478 and a relative viability (NCI-H727; first compound 0.8 µM) of 0.478. For the same compound, the relative viability (NCI-H727; first compound 2.53 µM) was 0.597, the relative viability (EMC-BAC-2; first compound 0.08 µM) was 0.578 and the relative viability (EMC-BAC-2; first compound 0.253 µM) was 0.507. For the same compound, the relative viability (EMC-BAC-2; first compound 0.8 µM) was 0.542, the relative viability (EMC-BAC-2; first compound 2.53 µM) was 0.467 and the relative viability (NCI-H1650; first compound 0.08 µM) was 0.497. For the same compound, the relative viability (NCI-H1650; first compound 0.253 µM) was 0.428, the relative viability (NCI-H1650; first compound 0.8 µM) was 0.384 and the relative viability (NCI-H1650; first compound 2.53 µM) was 0.276. It also gave a relative viability (NCI-H1734; first compound 0.08 µM) of 0.49, a relative viability (NCI-H1734; first compound 0.253 µM) of 0.379 and a relative viability (NCI-H1734; first compound 0.8 µM) of 0.391. For the same compound, the relative viability (NCI-H1734; first compound 2.53 µM) was 0.355, the relative viability (EKVX; first compound 0.08 µM) was 0.192 and the relative viability (EKVX; first compound 0.253 µM) was 0.226. It also gave a relative viability (EKVX; first compound 0.8 µM) of 0.196, a relative viability (EKVX; first compound 2.53 µM) of 0.222 and a relative viability (COR-L 105; first compound 0.08 µM) of 0.532. The relative viability (COR-L 105; first compound 0.253 µM) was 0.487, the relative viability (COR-L 105; first compound 0.8 µM) was 0.53 and the relative viability (COR-L 105; first compound 2.53 µM) was 0.357. For the same compound, the relative viability (NCI-H2126; first compound 0.08 µM) was 0.526, the relative viability (NCI-H2126; first compound 0.253 µM) was 0.533 and the relative viability (NCI-H2126; first compound 0.8 µM) was 0.506. The relative viability (NCI-H2126; first compound 2.53 µM) was 0.567, the relative viability (LK-2; first compound 0.08 µM) was 0.549 and the relative viability (LK-2; first compound 0.253 µM) was 0.501. For the same compound, the relative viability (LK-2; first compound 0.8 µM) was 0.379, the relative viability (LK-2; first compound 2.53 µM) was 0.641 and the relative viability (EPLC-272H; first compound 0.08 µM) was 0.333. It also gave a relative viability (EPLC-272H; first compound 0.253 µM) of 0.318, a relative viability (EPLC-272H; first compound 0.8 µM) of 0.315 and a relative viability (EPLC-272H; first compound 2.53 µM) of 0.316. It also gave a relative viability (NCI-H1944; first compound 0.08 µM) of 0.203, a relative viability (NCI-H1944; first compound 0.8 µM) of 0.221 and a relative viability (NCI-H1944; first compound 2.53 µM) of 0.195. For the same compound, the relative viability (NCI-H1792; first compound 0.08 µM) was 0.464, the relative viability (NCI-H1792; first compound 0.8 µM) was 0.329 and the relative viability (NCI-H1792; first compound 2.53 µM) was 0.391. For the same compound, the relative viability (SW 1573; first compound 0.08 µM) was 0.515, the relative viability (SW 1573; first compound 0.253 µM) was 0.334 and the relative viability (SW 1573; first compound 0.8 µM) was 0.436. The relative viability (SW 1573; first compound 2.53 µM) was 0.3, the relative viability (BEN; first compound 0.08 µM) was 0.232 and the relative viability (BEN; first compound 0.253 µM) was 0.269. It also gave a relative viability (BEN; first compound 0.8 µM) of 0.252, a relative viability (BEN; first compound 2.53 µM) of 0.261 and a relative viability (HCC-78; first compound 0.08 µM) of 0.804. For the same compound, the relative viability (HCC-78; first compound 0.253 µM) was 0.675, the relative viability (HCC-78; first compound 0.8 µM) was 0.636 and the relative viability (HCC-78; first compound 2.53 µM) was 0.645. For the same compound, the relative viability (HCC-827; first compound 0.08 µM) was 0.384, the relative viability (HCC-827; first compound 0.8 µM) was 0.362 and the relative viability (HCC-827; first compound 2.53 µM) was 0.337. The relative viability (RERF-LC-KJ; first compound 0.08 µM) was 0.436, the relative viability (RERF-LC-KJ; first compound 0.253 µM) was 0.445 and the relative viability (RERF-LC-KJ; first compound 0.8 µM) was 0.426. It also gave a relative viability (RERF-LC-KJ; first compound 2.53 µM) of 0.354, a relative viability (NCI-H2087; first compound 0.08 µM) of 0.571 and a relative viability (NCI-H2087; first compound 0.253 µM) of 0.379. The relative viability (NCI-H2087; first compound 0.8 µM) was 0.442, the relative viability (NCI-H2087; first compound 2.53 µM) was 0.329 and the relative viability (LCLC-97TM1; first compound 0.08 µM) was 0.481. The relative viability (LCLC-97TM1; first compound 0.8 µM) was 0.535, the relative viability (LCLC-97TM1; first compound 2.53 µM) was 0.462 and the relative viability (LOU-NH91; first compound 0.08 µM) was 0.769. For the same compound, the relative viability (LOU-NH91; first compound 0.253 µM) was 0.674, the relative viability (LOU-NH91; first compound 0.8 µM) was 0.756 and the relative viability (LOU-NH91; first compound 2.53 µM) was 0.567. The relative viability (LU99A; first compound 0.08 µM) was 0.972, the relative viability (LU99A; first compound 0.253 µM) was 0.769 and the relative viability (LU99A; first compound 0.8 µM) was 0.962. For the same compound, the relative viability (LU99A; first compound 2.53 µM) was 0.752, the relative viability (SK-MES-1; first compound 0.08 µM) was 0.643 and the relative viability (SK-MES-1; first compound 0.253 µM) was 0.648. It also gave a relative viability (SK-MES-1; first compound 0.8 µM) of 0.72, a relative viability (SK-MES-1; first compound 2.53 µM) of 0.584 and a relative viability (NCI-H358; first compound 0.08 µM) of 0.34. For the same compound, the relative viability (NCI-H358; first compound 0.253 µM) was 0.307, the relative viability (NCI-H358; first compound 0.8 µM) was 0.336 and the relative viability (NCI-H358; first compound 2.53 µM) was 0.299. It also gave a relative viability (ChaGo-K-1; first compound 0.08 µM) of 0.493, a relative viability (ChaGo-K-1; first compound 0.253 µM) of 0.375 and a relative viability (ChaGo-K-1; first compound 0.8 µM) of 0.44. For the same compound, the relative viability (ChaGo-K-1; first compound 2.53 µM) was 0.413.
